Source: patent US11306124B2, “Agonist agents of CD47 inducing programmed cell death and their use in the treatments of diseases associated with defects in programmed cell death” (SORBONNE UNIVERSITE, priority 2016, dated 2022)
Residues, ends and D or L forms follow the SMILES beside them.

Biological target: T1, CD47 (Homo sapiens, UniProt Q08722)
T1 construct: MEC-1 or Jurkat membrane preparation is labeled using the Nanotemper NT-647 labeling kit; endogenous in cells; host or cells: Jurkat and/or MEC-1 cell membrane preparation
T1 sequence (Q08722 19-323): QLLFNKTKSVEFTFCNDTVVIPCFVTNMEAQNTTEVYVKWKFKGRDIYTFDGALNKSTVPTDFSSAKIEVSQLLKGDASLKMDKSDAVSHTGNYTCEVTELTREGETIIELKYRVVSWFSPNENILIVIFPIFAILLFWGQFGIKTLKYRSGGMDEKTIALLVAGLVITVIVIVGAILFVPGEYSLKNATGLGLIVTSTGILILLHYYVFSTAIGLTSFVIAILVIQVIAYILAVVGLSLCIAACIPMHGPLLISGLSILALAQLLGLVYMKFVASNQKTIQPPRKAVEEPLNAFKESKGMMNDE
Assay: Binding affinity by Microscale Thermophoresis on labeled Jurkat and/or MEC-1 cell membrane preparation
Excerpt: FIG. 5 and FIG. 6. Binding curve measured by MST. The measurement method is based on the directed movement of molecules along a temperature gradient, an effect termed “thermophoresis”. A local temperature difference ΔT leads to a local change in molecule concentration (depletion or enrichment), quantified by the Soret coefficient ST: chot/ccold=exp(−STΔT). Jurkat or Mec-1 cell membrane preparations are labeled using the Nanotemper NT-647 labeling kit as described elsewhere.xliv The labeled preparation is eluted with PBS and stored at 4° C. A stock solution of each peptide is prepared in DMSO (5 mM) and then diluted with PBS. For the peptides evaluated by MST, we have kept the concentration of the NT.115-labeled membrane constant, while the concentration of the ligand (peptide) was varied. […]
Binding affinity measurements. The binding affinities of peptides, here PKT16, PKTD1, PKTD10, PKTD10-1, PKTD10-3, PKTD10-5, PKDT10-7 and PKTD10-8 for a membrane preparation from Jurkat and/or MEC-1 cells were measured by Microscale Thermophoresis^xlv on a Monolith NT115-pico system (Nanotemper Technologies, Munich, Germany).
Binding curve measured by MST. […] A local temperature difference ΔT leads to a local change in molecule concentration (depletion or enrichment), quantified by the Soret coefficient ST: chot/ccold=exp(−STΔT). […]

CCCC[C@H](NC(=O)[C@@H](NC(=O)[C@@H](NC(=O)[C@H](Cc1ccc(O)cc1)NC(=O)[C@H](Cc1ccccc1)NC(=O)[C@H](CCCNC(=N)N)N(C)C(=O)[C@H](N)CCCCN)C(C)C)C(C)C)C(=O)N[C@@H](Cc1c[nH]c2ccccc12)C(=O)N[C@@H](CCCCN)C(=O)N[C@H](CCCCN)C(=O)O [PKT16, (D)Lys-(N-Me)Arg-Phe-Tyr-Val-Val-Nle-Trp-Lys-(D)Lys] (HELM PEPTIDE1{[dK].[meR].F.Y.V.V.[Nle].W.K.[dK]}$$$$V2.0; N-terminus and C-terminus assumed)
binding affinities (Kd), order of magnitude in words: micromolar range
